Key:
[1] = system: K. pneumoniae expressing the Class A carbapenemase KPC-2; assay: Broth microdilution MIC assay with meropenem, K. pneumoniae KPC-2; format: cell-based; conditions: Fixed Mero (meropenem) 4 μg/mL; K. p. 156319 KPC-3
In short: (§1)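 Strains grown 3-5 hours in CAMHB are inoculated by the CLSI broth microdilution method onto compound dilutions (16 to 0.125 μg/mL) overlaid with β-lactam at 4 μg/ml final. After 16-20 hours at 37° C, the lowest compound concentration inhibiting growth is taken as the MIC.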

[2] = system: P. aeruginosa expressing the Class B carbapenemase VIM-2; assay: Broth microdilution MIC assay with meropenem, P. aeruginosa VIM-2; format: cell-based; conditions: Fixed Mero (meropenem) 4 μg/mL; P. aerug. 2775 VIM-2
In short: as §1

OXA-48 = OXA-48 (UniProt Q6XEC0); assay: β-lactamase enzyme inhibition assay, Class D oxacillinase; format: biochemical; conditions: read-out: OXA-48
SHV-5 = target: T1, SHV-5 (Klebsiella pneumoniae, UniProt P0A3M1); assay: β-lactamase enzyme inhibition assay, SHV-5 (cefotaxime substrate); format: biochemical
T1 construct: made in house; host or cells: E. coli BL21(DE3)
In short: (§2)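 Compounds are mixed with purified, untagged recombinant β-lactamase and held 15 min at 37 °C. Substrate is then added: nitrocefin (100 μM final) for OXA-1, imipenem for KPC-2, cefotaxime for SHV-5. Absorbance is followed immediately, and percent inhibition per concentration gives the IC50.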

[3] = system: K. pneumoniae producing the Class D carbapenemase OXA-48; assay: Broth microdilution MIC assay with meropenem, K. pneumoniae OXA-48; format: cell-based; conditions: Fixed Mero (meropenem) 4 μg/mL; K. p. 11978 OXA-48
In short: as §1

[4] = system: K. pneumoniae expressing the class A carbapenemase KPC-2 and the class B carbapenemase VIM-4; assay: Broth microdilution MIC assay with meropenem, K. pneumoniae KPC-2 and VIM-4; format: cell-based; conditions: Fixed Mero (meropenem) 4 μg/mL; K. p. A-1797 KPC-2 VIM-4
In short: as §1

AmpC = target: T2, AmpC (Enterobacter cloacae, UniProt P05364); assay: β-lactamase enzyme inhibition assay, p99 AmpC (nitrocefin substrate); format: biochemical
T2 construct: made in house; host or cells: E. coli BL21(DE3)
In short: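 Compounds are mixed with purified, untagged recombinant β-lactamase and held 15 min at 37 °C. Substrate is then added. Absorbance is followed immediately, and percent inhibition per concentration gives the IC50.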

KPC-2 = target: T3, KPC-2 (Klebsiella pneumoniae, UniProt Q9F663); assay: β-lactamase enzyme inhibition assay, KPC-2 (imipenem substrate); format: biochemical; conditions: Class A; imipenem substrate, 300 nm; read-out: KPC-2
T3 construct: made in house; host or cells: E. coli BL21(DE3)
In short: as §2

VIM-2 = target: T4, VIM-2 (Escherichia coli, UniProt Q5U7L7); assay: β-lactamase enzyme inhibition assay, VIM-2 (nitrocefin substrate); format: biochemical; conditions: Class B; nitrocefin substrate, 486 nm; read-out: VIM-2
T4 construct: made in house; host or cells: E. coli BL21(DE3)
In short: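 First, VIM-2 purified by repeated anion exchange at pH 7.5 is mixed with inhibitor and held 15 min at 37 °C. Next, nitrocefin (final 100 μM) is dispensed and absorbance at 486 nm monitored immediately for 10 min. Rates versus uninhibited controls give IC50.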

[5] = system: E. coli expressing the Class A Extended Spectrum Beta-Lactamase (ESBL) CTX-M-15; assay: Broth microdilution MIC assay with ceftazidime, E. coli CTX-M-15; format: cell-based; conditions: Fixed CAZ (ceftazidime) 4 μg/mL; E. coli ESBL4 CTX-M-15
In short: as §1

[6] = system: E. cloacae expressing the Class C P99; assay: Broth microdilution MIC assay with ceftazidime, E. cloacae P99; format: cell-based; conditions: Fixed CAZ (ceftazidime) 4 μg/mL; E. cl. 144200 p99 AmpC
In short: as §1

T3 sequence (Q9F663 25-293, looked up): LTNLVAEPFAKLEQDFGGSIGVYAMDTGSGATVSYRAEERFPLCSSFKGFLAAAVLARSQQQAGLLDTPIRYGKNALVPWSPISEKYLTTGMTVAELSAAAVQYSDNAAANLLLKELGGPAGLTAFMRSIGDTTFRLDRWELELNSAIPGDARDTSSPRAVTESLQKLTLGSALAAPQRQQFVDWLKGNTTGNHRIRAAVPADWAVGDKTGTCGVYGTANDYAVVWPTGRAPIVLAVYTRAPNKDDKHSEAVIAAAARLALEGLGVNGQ
T1 sequence (P0A3M1 22-286): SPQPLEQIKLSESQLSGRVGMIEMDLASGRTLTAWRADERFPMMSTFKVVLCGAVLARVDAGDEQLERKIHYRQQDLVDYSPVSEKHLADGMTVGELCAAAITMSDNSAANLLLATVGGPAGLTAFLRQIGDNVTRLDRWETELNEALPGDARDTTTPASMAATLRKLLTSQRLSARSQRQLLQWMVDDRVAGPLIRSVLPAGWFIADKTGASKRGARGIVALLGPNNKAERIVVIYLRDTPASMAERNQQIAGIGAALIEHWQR
T2 sequence (P05364 21-381): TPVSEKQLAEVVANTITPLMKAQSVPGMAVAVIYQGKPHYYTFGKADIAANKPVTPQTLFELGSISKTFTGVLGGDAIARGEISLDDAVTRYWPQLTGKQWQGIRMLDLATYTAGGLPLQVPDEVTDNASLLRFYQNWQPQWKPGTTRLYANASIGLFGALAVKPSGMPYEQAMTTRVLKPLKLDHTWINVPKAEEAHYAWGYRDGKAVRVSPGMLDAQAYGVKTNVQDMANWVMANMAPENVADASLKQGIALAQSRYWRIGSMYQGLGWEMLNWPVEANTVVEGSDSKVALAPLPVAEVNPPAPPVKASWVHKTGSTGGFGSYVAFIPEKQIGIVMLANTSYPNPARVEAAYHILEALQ

SMILES	MIC (μg/mL) of Exemplary Compounds in presence of fixed β-lactams: K. p. 156319 KPC-3 [1]	MIC (μg/mL) of Exemplary Compounds in presence of fixed β-lactams: P. aerug. 2775 VIM-2 [2]	IC50 (OXA-48)	IC50 (SHV-5)	MIC (μg/mL) of Exemplary Compounds in presence of fixed β-lactams: K. p. 11978 OXA-48 [3]	MIC (μg/mL) of Exemplary Compounds in presence of fixed β-lactams: K. p. A-1797 KPC-2 VIM-4 [4]	IC50 (AmpC)	IC50 (KPC-2)	IC50 (VIM-2)	MIC (μg/mL) of Exemplary Compounds in presence of fixed β-lactams: E. coli ESBL4 CTX-M-15 [5]	MIC (μg/mL) of Exemplary Compounds in presence of fixed β-lactams: E. cl. 144200 p99 AmpC [6]
Nc1ccc(S(=O)(=O)NCc2cn(CC(=O)N[C@H]3Cc4cccc(C(=O)O)c4OB3O)nn2)cc1 [Example 70, (R)-3-(2-(4-(((4-aminophenyl)sulfonamido)methyl)-1H-1,2,3-triazol-1-yl)acetamido)-2-hydroxy-3,4-dihydro-2H-benzo[e][1,2]oxaborinine-8-carboxylic acid]	B (B represents an MIC between 1 and 16 μg/mL inclusive)	B (B represents an MIC between 1 and 16 μg/mL inclusive)	100 to 1000 nM	< 100 nM	B (B represents an MIC between 1 and 16 μg/mL inclusive)	B (B represents an MIC between 1 and 16 μg/mL inclusive)	< 100 nM	< 100 nM	1000 to 10000 nM	C (C represents an MIC of <1 μg/mL)	C (C represents an MIC of <1 μg/mL)
CC(C)(C(=O)N[C@H]1Cc2cccc(C(=O)O)c2OB1O)n1cc(CNCCN)nn1 [Example 60, (R)-3-(2-(4-(((2-aminoethyl)amino)methyl)-1H-1,2,3-triazol-1-yl)-2-methylpropanamido)-2-hydroxy-3,4-dihydro-2H-benzo[e][1,2]oxaborinine-8-carboxylic acid]	B (B represents an MIC between 1 and 16 μg/mL inclusive)	C (C represents an MIC of <1 μg/mL)	< 100 nM	< 100 nM	B (B represents an MIC between 1 and 16 μg/mL inclusive)	C (C represents an MIC of <1 μg/mL)	< 100 nM	100 to 1000 nM	< 100 nM	B (B represents an MIC between 1 and 16 μg/mL inclusive)	C (C represents an MIC of <1 μg/mL)
NCCn1ncnc1CC(=O)N[C@H]1Cc2cccc(C(=O)O)c2OB1O [Example 119, (R)-3-(2-(1-(2-aminoethyl)-1H-1,2,4-triazol-5-yl)acetamido)-2-hydroxy-3,4-dihydro-2H-benzo[e][1,2]oxaborinine-8-carboxylic acid]	C (C represents an MIC of <1 μg/mL)	C (C represents an MIC of <1 μg/mL)	100 to 1000 nM	< 100 nM	B (B represents an MIC between 1 and 16 μg/mL inclusive)	B (B represents an MIC between 1 and 16 μg/mL inclusive)	< 100 nM	100 to 1000 nM	100 to 1000 nM	C (C represents an MIC of <1 μg/mL)	C (C represents an MIC of <1 μg/mL)
CN(C)Cc1nnn(CC(=O)N[C@H]2Cc3cccc(C(=O)O)c3OB2O)c1CN(C)C [Example 38, (R)-3-(2-(4,5-bis((dimethylamino)methyl)-1H-1,2,3-triazol-1-yl)acetamido)-2-hydroxy-3,4-dihydro-2H-benzo[e][1,2]oxaborinine-8-carboxylic acid]	B (B represents an MIC between 1 and 16 μg/mL inclusive)	B (B represents an MIC between 1 and 16 μg/mL inclusive)	100 to 1000 nM	100 to 1000 nM	B (B represents an MIC between 1 and 16 μg/mL inclusive)	B (B represents an MIC between 1 and 16 μg/mL inclusive)	< 100 nM	< 100 nM	100 to 1000 nM	B (B represents an MIC between 1 and 16 μg/mL inclusive)	C (C represents an MIC of <1 μg/mL)
Nc1n[nH]c2ncc(-c3cn(CC(=O)N[C@H]4Cc5cccc(C(=O)O)c5OB4O)nn3)cc12 [Example 36]	B (B represents an MIC between 1 and 16 μg/mL inclusive)	B (B represents an MIC between 1 and 16 μg/mL inclusive)	100 to 1000 nM	< 100 nM	B (B represents an MIC between 1 and 16 μg/mL inclusive)	A (A represents an MIC>16 μg/mL)	< 100 nM	< 100 nM	1000 to 10000 nM	C (C represents an MIC of <1 μg/mL)	C (C represents an MIC of <1 μg/mL)
NCCCC[C@@H](C(=O)N[C@H]1Cc2cccc(C(=O)O)c2OB1O)n1cc(CN)nn1 [Example 113, (R)-3-((S)-6-amino-2-(4-(aminomethyl)-1H-1,2,3-triazol-1-yl)hexanamido)-2-hydroxy-3,4-dihydro-2H-benzo[e][1,2]oxaborinine-8-carboxylic acid]	B (B represents an MIC between 1 and 16 μg/mL inclusive)	C (C represents an MIC of <1 μg/mL)	100 to 1000 nM	1000 to 10000 nM	A (A represents an MIC>16 μg/mL)	C (C represents an MIC of <1 μg/mL)	< 100 nM	100 to 1000 nM	< 100 nM	C (C represents an MIC of <1 μg/mL)	C (C represents an MIC of <1 μg/mL)
O=C(Cn1cc2c(n1)CNC2)N[C@H]1Cc2cccc(C(=O)O)c2OB1O [Example 57, (R)-3-(2-(5,6-dihydropyrrolo[3,4-c]pyrazol-2(4H)-yl)acetamido)-2-hydroxy-3,4-dihydro-2H-benzo[e][1,2]oxaborinine-8-carboxylic acid]	C (C represents an MIC of <1 μg/mL)	B (B represents an MIC between 1 and 16 μg/mL inclusive)	1000 to 10000 nM	< 100 nM	B (B represents an MIC between 1 and 16 μg/mL inclusive)	B (B represents an MIC between 1 and 16 μg/mL inclusive)	< 100 nM	< 100 nM	100 to 1000 nM	C (C represents an MIC of <1 μg/mL)	C (C represents an MIC of <1 μg/mL)

Source: patent publication US11046716B2, “Beta-lactamase inhibitors” (priority 2015, dated 2021)
